Series [1] concerns Amaranthus viridis. The series is described as follows: Herbicidal activity against Amaranthus viridis assessed as seedling death under green house at 0.5 kg/ha at 25 degC measured after 4 weeks. It counts as functional, organism-based.
For series [2], the system named is Echinochloa crus-galli. The series is described as follows: Herbicidal activity against Echinochloa crus-galli (barnyard grass) assessed as seedling death under green house at 1 kg/ha at 25 degC measured after 4 weeks. The format is functional, organism-based.
Series [3] deals with Persicaria lapathifolia. The series is described as follows: Herbicidal activity against Persicaria lapathifolia assessed as seedling death under green house at 0.5 kg/ha at 25 degC measured after 4 weeks. It counts as functional, organism-based.
In series [4] the test system is Digitaria ciliaris. Kind of series: Herbicidal activity against Digitaria ciliaris assessed as seedling death under green house at 0.5 kg/ha at 25 degC measured after 4 weeks. The format is functional, organism-based.
Series [5] concerns Echinochloa crus-galli. Kind of series: Herbicidal activity against Echinochloa crus-galli (barnyard grass) assessed as seedling death under green house at 0.5 kg/ha at 25 degC measured after 4 weeks. It counts as functional, organism-based.
The test system of series [6] is Digitaria ciliaris. The series is described as follows: Herbicidal activity against Digitaria ciliaris assessed as seedling death under green house at 1 kg/ha at 25 degC measured after 4 weeks. It counts as functional, organism-based.
Series [7] deals with Amaranthus viridis. Kind of series: Herbicidal activity against Amaranthus viridis assessed as seedling death under green house at 1 kg/ha at 25 degC measured after 4 weeks. It counts as functional, organism-based.
In series [8] the test system is Persicaria lapathifolia. Kind of series: Herbicidal activity against Persicaria lapathifolia assessed as seedling death under green house at 4 kg/ha at 25 degC measured after 4 weeks. It counts as functional, organism-based.
In series [9] the test system is Amaranthus viridis. The series is described as follows: Herbicidal activity against Amaranthus viridis assessed as seedling death under green house at 4 kg/ha at 25 degC measured after 4 weeks. It counts as functional, organism-based.
Series [10] relates to Persicaria lapathifolia. Kind of series: Herbicidal activity against Persicaria lapathifolia assessed as seedling death under green house at 1 kg/ha at 25 degC measured after 4 weeks. It counts as functional, organism-based.
The subject of series [11] is Glycine max. The series is described as follows: Toxicity in Glycine max cv. Tamahomare (soybean) assessed as seedling death under green house at 0.5 kg/ha at 25 degC measured after 4 weeks by crop selectivity assay. It counts as organism-based. The conditions noted are these: in vivo, 672 h.
Series [12] has as its system Gossypium hirsutum. Kind of series: Toxicity in Gossypium hirsutum cv. Hakushuu (cotton) assessed as seedling death under green house at 0.5 kg/ha at 25 degC measured after 4 weeks by crop selectivity assay. It counts as organism-based. The conditions noted are these: in vivo, 672 h.
Series [13] has as its system Digitaria ciliaris. Kind of series: Herbicidal activity against Digitaria ciliaris assessed as seedling death under green house at 4 kg/ha at 25 degC measured after 4 weeks. The format is functional, organism-based.
The test system of series [14] is Echinochloa crus-galli. Kind of series: Herbicidal activity against Echinochloa crus-galli (barnyard grass) assessed as seedling death under green house at 4 kg/ha at 25 degC measured after 4 weeks. It counts as functional, organism-based.
Series [15] has as its system Glycine max. The series is described as follows: Toxicity in Glycine max cv. Tamahomare (soybean) assessed as seedling death under green house at 0.25 kg/ha at 25 degC measured after 4 weeks by crop selectivity assay. It counts as organism-based. As to conditions: in vivo, 672 h.
Another series concerns Triticum aestivum. The series is described as follows: Toxicity in Triticum aestivum cv. Nohrin-61 (wheat) assessed as seedling death under green house at 0.25 kg/ha at 25 degC measured after 4 weeks by crop selectivity assay. It counts as organism-based. The conditions noted are these: in vivo, 672 h.
Series [16] has as its system Gossypium hirsutum. The series is described as follows: Toxicity in Gossypium hirsutum cv. Hakushuu (cotton) assessed as seedling death under green house at 0.25 kg/ha at 25 degC measured after 4 weeks by crop selectivity assay. It counts as organism-based. As to conditions: in vivo, 672 h.
The subject of series [17] is Amaranthus viridis. Kind of series: Herbicidal activity against Amaranthus viridis assessed as seedling death under green house at 0.25 kg/ha at 25 degC measured after 4 weeks. It counts as functional, organism-based.
Series [18] concerns Digitaria ciliaris. The series is described as follows: Herbicidal activity against Digitaria ciliaris assessed as seedling death under green house at 0.25 kg/ha at 25 degC measured after 4 weeks. It counts as functional, organism-based.
Series [19] deals with Echinochloa crus-galli. The series is described as follows: Herbicidal activity against Echinochloa crus-galli (barnyard grass) assessed as seedling death under green house at 0.25 kg/ha at 25 degC measured after 4 weeks. The format is functional, organism-based.

Molecules are shown by their SMILES. Calls of active or inactive are those of the source. The calls are words filed in the database; no cut-off is given here.

As for `Cc1c(C(F)(F)F)noc1OCC(=O)N(C)c1ccccc1I`, the result in the series with Amaranthus viridis [1], with Echinochloa crus-galli [2], with Digitaria ciliaris [4], in the series on Echinochloa crus-galli [5], in the series on Digitaria ciliaris [6] and in the series on Amaranthus viridis [7] was Active. Also, in the series with Persicaria lapathifolia [3], the result was inactive.
With `Cc1c(C(F)(F)F)noc1OCC(=O)N(C)c1c(Cl)cccc1Cl`, the outcome in the series on Persicaria lapathifolia [8] and in the series on Amaranthus viridis [9] was inactive.
`Cc1c(C(F)(F)F)noc1OCC(=O)N(C)c1ccc(Cl)cc1`: the outcome in the series on Amaranthus viridis [1], in the series with Persicaria lapathifolia [3], in the series with Persicaria lapathifolia [10] and in the series with Amaranthus viridis [7] was inactive. In addition, the outcome in the series on Echinochloa crus-galli [2] and in the series with Digitaria ciliaris [6] was Active.
For `CCc1c(C(F)(F)F)noc1OCC(=O)N(C)c1ccccc1`, the result in the series on Echinochloa crus-galli [2], with Digitaria ciliaris [4], in the series with Echinochloa crus-galli [5], in the series with Digitaria ciliaris [6] and in the series with Amaranthus viridis [7] was Active. The Activity entry with Glycine max [11] and in the series with Gossypium hirsutum [12] was “Non-toxic” in each case.
Consider `CCc1noc(OCC(=O)N(C)c2ccccc2)c1-c1ccccc1`, for which the result in the series on Persicaria lapathifolia [8] was inactive.
In the case of `Cc1c(C(F)(F)F)noc1OCC(=O)N(C)c1ccccc1-c1ccccc1`, the outcome in the series with Digitaria ciliaris [13], in the series on Persicaria lapathifolia [8], in the series with Echinochloa crus-galli [14] and in the series with Amaranthus viridis [9] was inactive.
`CN(C(=O)COc1cc(C(C)(C)C)no1)c1ccccc1`: the outcome with Digitaria ciliaris [13], with Persicaria lapathifolia [8] and in the series on Amaranthus viridis [9] was inactive.
Turning to `Cc1c(C(F)(F)F)noc1OCC(=O)N(C)c1cccc([N+](=O)[O-])c1`, the result with Amaranthus viridis [1] and in the series on Persicaria lapathifolia [3] was inactive. The result in the series on Digitaria ciliaris [6] was Active.
Regarding `CCc1ccccc1N(C)C(=O)COc1onc(C(F)(F)F)c1C`, the result with Echinochloa crus-galli [2], in the series on Digitaria ciliaris [4] and with Digitaria ciliaris [6] was Active. Further, the outcome with Persicaria lapathifolia [3] and with Persicaria lapathifolia [10] was inactive.
Consider `Cc1c(C(F)(F)F)noc1OCC(=O)N(C)c1ccccc1C(C)C`, for which the result with Amaranthus viridis [1], in the series with Persicaria lapathifolia [3], in the series with Persicaria lapathifolia [10] and in the series on Amaranthus viridis [7] was inactive. The outcome in the series on Echinochloa crus-galli [2] and in the series on Digitaria ciliaris [6] was Active.
For `Cc1ccc(C)c(N(C)C(=O)COc2onc(C(F)(F)F)c2C)c1`, the outcome with Echinochloa crus-galli [2] and in the series with Echinochloa crus-galli [5] was Active. Further, the outcome with Persicaria lapathifolia [3] and with Persicaria lapathifolia [10] was inactive.
Regarding `CN(C(=O)COc1cc(-c2ccccc2)no1)c1ccccc1`, the result in the series with Digitaria ciliaris [13], with Persicaria lapathifolia [8], in the series on Echinochloa crus-galli [14] and with Amaranthus viridis [9] was inactive.
Turning to `Cc1c(C(F)(F)F)noc1OCC(=O)N(C)c1c(F)cccc1F`, the outcome in the series with Echinochloa crus-galli [2] was Active. In addition, the outcome with Persicaria lapathifolia [3] and with Persicaria lapathifolia [10] was inactive.
Turning to `CN(C(=O)COc1onc(-c2ccccc2)c1Br)c1ccccc1`, the outcome with Persicaria lapathifolia [8] and in the series on Amaranthus viridis [9] was inactive.
Take `COc1ccc(N(C)C(=O)COc2onc(C(F)(F)F)c2C)cc1`: the result in the series on Amaranthus viridis [1], in the series with Echinochloa crus-galli [2], in the series with Digitaria ciliaris [4], with Echinochloa crus-galli [5], with Digitaria ciliaris [6] and in the series with Amaranthus viridis [7] was Active. In the series with Persicaria lapathifolia [3], the outcome was inactive.
Regarding `Cc1c(C(F)(F)F)noc1OCC(=O)N(C)c1ccc(Br)cc1`, the outcome in the series on Amaranthus viridis [1], with Persicaria lapathifolia [3], in the series with Persicaria lapathifolia [10] and with Amaranthus viridis [7] was inactive. For the same compound, the result in the series with Echinochloa crus-galli [2], with Digitaria ciliaris [4] and in the series with Digitaria ciliaris [6] was Active.
`Cc1c(C(F)(F)F)noc1OCC(=O)N(C)c1cccc(F)c1`: the outcome in the series on Amaranthus viridis [1], with Echinochloa crus-galli [2], with Persicaria lapathifolia [10], with Digitaria ciliaris [4], with Echinochloa crus-galli [5] and in the series on Digitaria ciliaris [6] was Active. For the same compound, the outcome in the series with Amaranthus viridis [17], with Digitaria ciliaris [18], in the series on Echinochloa crus-galli [19] and in the series on Amaranthus viridis [7] was Active. For the same compound, the Activity entry in the series on Glycine max [15], in the series with Triticum aestivum and in the series with Gossypium hirsutum [16] was “Non-toxic” in each case.
For the compound `Cc1c(C(F)(F)F)noc1OCC(=O)N(C)c1ccc([N+](=O)[O-])cc1`, the result with Persicaria lapathifolia [8] and in the series on Amaranthus viridis [9] was inactive.
For `Cc1cccc(C)c1N(C)C(=O)COc1onc(C(F)(F)F)c1C`, the result in the series on Digitaria ciliaris [13], in the series on Persicaria lapathifolia [8], with Echinochloa crus-galli [14] and with Amaranthus viridis [9] was inactive.
In the case of `Cc1c(C(F)(F)F)noc1OCC(=O)N(C)c1ccccc1Cl`, the result with Amaranthus viridis [1], with Echinochloa crus-galli [2], with Persicaria lapathifolia [10], in the series with Digitaria ciliaris [4], in the series on Echinochloa crus-galli [5] and in the series with Digitaria ciliaris [6] was Active. Further, the outcome with Amaranthus viridis [17], with Digitaria ciliaris [18], in the series on Echinochloa crus-galli [19] and in the series with Amaranthus viridis [7] was Active. Besides, in the series on Gossypium hirsutum [16], the Activity result was “Non-toxic”.
With `CCCCCN(C(=O)COc1onc(C(F)(F)F)c1C)c1ccccc1`, the outcome in the series with Digitaria ciliaris [13], with Persicaria lapathifolia [8] and with Amaranthus viridis [9] was inactive.
Take `Cc1cccc(N(C)C(=O)COc2onc(C(F)(F)F)c2C)c1`: the outcome with Amaranthus viridis [1], in the series with Echinochloa crus-galli [2], in the series with Digitaria ciliaris [4], in the series with Echinochloa crus-galli [5], in the series with Digitaria ciliaris [6] and in the series with Amaranthus viridis [7] was Active.
For the compound `CCc1ccc(N(C)C(=O)COc2onc(C(F)(F)F)c2C)cc1`, the outcome with Echinochloa crus-galli [2], in the series with Digitaria ciliaris [4], in the series on Echinochloa crus-galli [5] and with Digitaria ciliaris [6] was Active. The result with Persicaria lapathifolia [3] and in the series with Persicaria lapathifolia [10] was inactive.
As for `Cc1c(C(F)(F)F)noc1OCC(=O)N(C)C(C)(C)C`, the result in the series with Digitaria ciliaris [13], with Persicaria lapathifolia [8], with Echinochloa crus-galli [14] and in the series with Amaranthus viridis [9] was inactive.
With `CCCc1ccc(N(C)C(=O)COc2onc(C(F)(F)F)c2C)cc1`, the outcome with Echinochloa crus-galli [2] and with Echinochloa crus-galli [5] was Active. In addition, the result in the series on Persicaria lapathifolia [3] and in the series with Persicaria lapathifolia [10] was inactive.
Consider `Cc1c(C(F)(F)F)noc1OCC(=O)Nc1ccccc1`, for which the result with Digitaria ciliaris [13], with Persicaria lapathifolia [8], with Echinochloa crus-galli [14] and in the series with Amaranthus viridis [9] was inactive.
On to `Cc1c(C(F)(F)F)noc1OCC(=O)N(C)c1ccccc1Br`, for which the outcome with Amaranthus viridis [1], in the series with Echinochloa crus-galli [2], in the series with Persicaria lapathifolia [10], in the series on Digitaria ciliaris [4], in the series on Echinochloa crus-galli [5] and with Digitaria ciliaris [6] was Active. Besides, the outcome with Digitaria ciliaris [18], with Echinochloa crus-galli [19] and in the series with Amaranthus viridis [7] was Active. The Activity result in the series on Glycine max [15], in the series with Triticum aestivum and in the series on Gossypium hirsutum [16] was “Non-toxic” in each case.
Turning to `Cc1c(C(F)(F)F)noc1OCC(=O)N(C)c1ccccc1F`, the outcome in the series on Amaranthus viridis [1], with Echinochloa crus-galli [2], in the series with Digitaria ciliaris [4], with Echinochloa crus-galli [5], with Digitaria ciliaris [6] and in the series with Amaranthus viridis [7] was Active.
